Measurements: PMC6321388, “Molecular Mechanism of Action of RORγt Agonists and Inverse Agonists: Insights from Molecular Dynamics Simulation” (Molecules, 2018)

Tests used:
RORγt [1] = target: T1, RORγt (Homo sapiens, UniProt P51449); assay: FRET coactivator-peptide recruitment assay with human RORγt-LBD (agonist, max. act. […]); format: binding
T1 construct: gene RORC; RORγt-LBD

RORγt [2] = target: T1, RORγt; assay: FRET coactivator-peptide recruitment assay with human RORγt-LBD (inverse agonist, max. -[…]); format: binding

T1 sequence (Q15788 2-1441): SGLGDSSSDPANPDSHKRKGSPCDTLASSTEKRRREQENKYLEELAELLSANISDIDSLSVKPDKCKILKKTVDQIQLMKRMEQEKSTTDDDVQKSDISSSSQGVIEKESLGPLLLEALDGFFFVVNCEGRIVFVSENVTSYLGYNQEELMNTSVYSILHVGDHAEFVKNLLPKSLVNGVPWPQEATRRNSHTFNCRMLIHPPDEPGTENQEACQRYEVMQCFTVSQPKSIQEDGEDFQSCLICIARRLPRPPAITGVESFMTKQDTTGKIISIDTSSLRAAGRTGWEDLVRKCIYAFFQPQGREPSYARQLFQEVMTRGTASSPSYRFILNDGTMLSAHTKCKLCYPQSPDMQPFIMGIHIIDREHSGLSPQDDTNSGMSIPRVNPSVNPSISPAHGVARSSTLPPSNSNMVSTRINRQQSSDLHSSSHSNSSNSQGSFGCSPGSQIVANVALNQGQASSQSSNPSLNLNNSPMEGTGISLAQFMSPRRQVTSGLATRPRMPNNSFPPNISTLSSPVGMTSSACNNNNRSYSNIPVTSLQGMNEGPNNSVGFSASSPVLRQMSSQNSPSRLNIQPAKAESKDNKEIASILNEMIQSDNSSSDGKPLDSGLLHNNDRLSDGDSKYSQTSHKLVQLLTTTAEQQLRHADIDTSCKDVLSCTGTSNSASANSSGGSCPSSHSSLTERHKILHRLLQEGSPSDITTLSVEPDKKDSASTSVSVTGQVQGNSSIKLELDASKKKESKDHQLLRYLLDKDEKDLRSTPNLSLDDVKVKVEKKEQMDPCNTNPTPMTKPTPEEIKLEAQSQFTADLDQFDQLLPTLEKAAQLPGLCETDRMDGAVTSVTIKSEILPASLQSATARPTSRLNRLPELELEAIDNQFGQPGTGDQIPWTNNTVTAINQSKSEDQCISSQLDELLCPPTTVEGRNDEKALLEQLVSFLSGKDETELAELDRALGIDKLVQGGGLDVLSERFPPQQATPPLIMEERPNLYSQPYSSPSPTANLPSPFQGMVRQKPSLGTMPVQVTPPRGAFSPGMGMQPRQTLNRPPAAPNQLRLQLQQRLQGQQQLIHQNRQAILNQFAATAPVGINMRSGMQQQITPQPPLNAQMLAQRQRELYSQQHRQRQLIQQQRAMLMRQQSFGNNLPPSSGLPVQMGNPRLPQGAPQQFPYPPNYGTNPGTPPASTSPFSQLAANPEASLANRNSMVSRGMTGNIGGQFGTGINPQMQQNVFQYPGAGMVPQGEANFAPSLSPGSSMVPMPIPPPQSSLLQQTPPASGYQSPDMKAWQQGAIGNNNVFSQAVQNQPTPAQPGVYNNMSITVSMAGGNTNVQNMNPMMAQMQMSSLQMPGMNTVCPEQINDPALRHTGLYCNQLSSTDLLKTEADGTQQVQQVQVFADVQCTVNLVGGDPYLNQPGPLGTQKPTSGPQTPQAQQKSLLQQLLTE
T1 sequence (P51449 265-507): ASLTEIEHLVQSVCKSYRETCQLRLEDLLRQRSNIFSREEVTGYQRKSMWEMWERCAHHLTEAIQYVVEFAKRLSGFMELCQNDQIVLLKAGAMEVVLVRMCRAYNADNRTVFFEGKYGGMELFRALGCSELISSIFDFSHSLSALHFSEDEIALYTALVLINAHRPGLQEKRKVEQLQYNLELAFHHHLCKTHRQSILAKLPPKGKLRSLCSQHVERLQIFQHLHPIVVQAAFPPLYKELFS

CC(=O)N1CCN(c2ccc3c(c2)CCCN3S(=O)(=O)c2ccccc2)CC1 [compound 1, agonist 1]
EC50 (RORγt [1]): 3.7 µM

CC(=O)N1CCN(c2ccc(N(C3CCC3)S(=O)(=O)Cc3ccccc3)cc2)CC1 [GT]
IC50 (RORγt [2]): 53 nM
